Measured values as given in US10927085B2, “1,2-naphthoquinone based derivative and method of preparing the same” (HUEN Co., Ltd., priority 2013, dated 2021).
Where two headings read alike, the source gives them in different places.

Columns and labels:
cells = experiment: Measurement of lactate change amount within cells; assay type: cell-based
Method: Cells were treated with 400 μl of 6% PCA, and then collected and extracted. Centrifugation (13,000 rpm, 10 min) was performed. A precipitate was dried using a Speed-Vac and then a weight of dried precipitate was measured. A supernatant was neutralized using 400 μl of 1 M KOH and a final volume thereof was adjusted to 1 ml using 0.33 M KH2PO4/K2HPO4, pH 7.5. Centrifugation (13,000 rpm, 10 min) was performed and the amount of lactate in a supernatant was measured (Megazyme, K-LATE).

C57BL/6J Lep ob/ob mice = experiment: Weight loss effects in obese mice (ob/ob); assay type: in vivo; settings: for weight increase ratio vs controls (FIG. 1): Exp. Ex. 3-1: 6.5 week-old ob/ob mice, 100 mg/kg orally once every day for two weeks
Method: 6.5 week-old C57BL/6J Lep ob/ob mice having genetic obesity characteristics available from ORIENTBIO were prepared. Two mice were raised in each polycarbonate breeding cage (200 W×260 L×130H (mm), Three-shine) in which temperature was 22 to 24° C., relative humidity was 30 to 50%, illuminance was 150 to 300 lux, night and day were 12 hours, and exhaust was performed at 10 to 15 air changes per hour. As a feed, low fat diet (11.9 kcal % fat, 5053, Labdiet) manufactured by ORIENTBIO was used. The feed was contained in a feeder and free intake was allowed. As drinking water, water, which was contained in a 250 mL polycarbonate based bottle, purified through a filter and a sterilizer was used and free intake was allowed.
For administration, a disposable syringe fitted with a sonde for oral administration was used and 10 ml/kg of the compound was orally administered into the stomach. As controls, three C57BL/6J Lep ob/ob mice were administered 0.1% SLS in an amount of 100 mg/kg in the same manner as described above. After administration, a time-dependent weight increase ratio was measured and results are illustrated in FIG. 1 below.
Weights of the experimental animals were measured immediately before administration of a test material and six times a week from an administration initiation day to a test termination day. Increased total weights were calculated by subtracting weights measured on an experiment initiation day from weights measured one day before an experiment termination day. Food intake amounts were calculated by measuring feed supply amounts and remaining amounts twice a week from an initiation day of test material administration to a test termination day for each individual.
Weight increase ratios, weight change, and intake amounts depending on administration time were measured and results are illustrated in FIG. 2 below.
Weight increase ratios, weight change, and intake amounts depending on administration time were measured and results are illustrated in FIG. 3 below.
Weight increase ratios, weight change, and intake amounts depending on administration time were measured and results are illustrated in FIG. 4 below.
Weight increase ratios, weight change, and intake amounts depending on administration time were measured and results are illustrated in FIG. 5 below.
Weight increase ratios, weight change, and intake amounts depending on administration time were measured and results are illustrated in FIG. 6 below.
Weight increase ratios, weight change, and intake amounts depending on administration time were measured and results are illustrated in FIG. 7 below.
Weight increase ratios, weight change, and intake amounts depending on administration time were measured and results are illustrated in FIG. 8 below.

NQO1 protein = NQO1 protein (Homo sapiens, UniProt P15559); experiment: NQO1 activity measurement (cytochrome C reduction); assay type: biochemical
Chain of NQO1 protein (P15559 whole entry, species assumed): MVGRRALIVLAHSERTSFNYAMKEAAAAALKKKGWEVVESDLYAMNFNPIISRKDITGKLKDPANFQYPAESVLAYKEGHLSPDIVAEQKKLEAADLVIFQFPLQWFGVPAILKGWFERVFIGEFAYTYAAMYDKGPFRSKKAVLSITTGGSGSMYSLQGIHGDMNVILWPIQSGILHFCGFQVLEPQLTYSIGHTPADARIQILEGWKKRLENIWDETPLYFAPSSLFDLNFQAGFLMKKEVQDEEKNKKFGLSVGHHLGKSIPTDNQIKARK
Method: An enzyme reaction solution included 25 mM Tris/HCl (pH 7.4), 0.14% bovine serum albumin, 200 μM NADH, 77 μM cytochrome C, and 5 ng of NQO1 protein. Enzymatic reaction was initiated by adding NADH and performed at 37° C. In this regard, a reaction rate was measured by observing absorbance, which was increased due to reduction of cytochrome C, at 550 nm for 10 minutes and NQO1 activity was represented as an amount of reduced cytochrome C [nmol cytochrome C reduced/min/μg protein].
Extinction coefficient for cytochrome C:21.1 mmol/L/cm=21.1 μmol/ml/cm

[1] = 5 μM, 37° C., absorbance at 550 nm for 10 minutes, 200 μM NADH, 77 μM cytochrome C, 5 ng NQO1 protein
[2] = Exp. Ex. 3-2: 10.5 week-old ob/ob mice, 150 mg/kg orally, six days
[3] = Exp. Ex. 3-3: 6 week-old ob/ob mice, 100 mg/kg orally, otherwise as 3-1
[4] = Exp. Ex. 3-8: 9.5 week-old ob/ob mice, 150 mg/kg orally, otherwise as 3-1
[5] = Exp. Ex. 3-4: 11 week-old ob/ob mice, 100 mg/kg orally, six days
[6] = Exp. Ex. 3-6: 12 week-old ob/ob mice, 150 mg/kg orally, seven days
[7] = Exp. Ex. 3-7: 6.5 week-old ob/ob mice, 150 mg/kg orally, seven days

SMILES: CN(C)Cc1nc2c(o1)-c1ccccc1C(=O)C2=O [Example 5, 2-((dimethylamino)methyl)naphtho[2,1-d]oxazole-4,5-dione]
- Lactate change amount within cells (nmol/mg cell) (cells): 5.9 nmol/mg cell
- intake amount vs controls (FIG. 2) (C57BL/6J Lep ob/ob mice; mouse, in vivo, po, 150 mg/kg): significantly decreased
- weight change vs controls (FIG. 2) (C57BL/6J Lep ob/ob mice; mouse, in vivo, po, 150 mg/kg): significantly decreased

SMILES: CC(C)(C)c1nc2c(o1)-c1ccccc1C(=O)C2=O [Example 2, 2-tert-butylnaphtho[2,1-d]oxazole-4,5-dione]
- NQO1 activity (5 μM, [nmol cytochrome C reduced/min/μg protein]) (NQO1 protein; [1]): 243.2 nmol cytochrome C reduced/min/μg protein
- Lactate change amount within cells (nmol/mg cell) (cells): 6.8 nmol/mg cell
- weight increase ratio vs controls (FIG. 1) (C57BL/6J Lep ob/ob mice): significantly decreased

SMILES: CC(C)c1nc2c(o1)-c1ccccc1C(=O)C2=O [Example 1, 2-isopropylnaphtho[2,1-d]oxazole-4,5-dione]
- NQO1 activity (5 μM, [nmol cytochrome C reduced/min/μg protein]) (NQO1 protein; [1]): 255.2 nmol cytochrome C reduced/min/μg protein
- Lactate change amount within cells (nmol/mg cell) (cells): 5.2 nmol/mg cell
- weight increase ratio vs controls (FIG. 1) (C57BL/6J Lep ob/ob mice): significantly decreased

SMILES: O=C1C(=O)c2nc(CN3CCOCC3)oc2-c2ccccc21 [Example 4, 2-(morpholinomethyl)naphtho[2,1-d]oxazole-4,5-dione]
- NQO1 activity (5 μM, [nmol cytochrome C reduced/min/μg protein]) (NQO1 protein; [1]): 207.3 nmol cytochrome C reduced/min/μg protein
- Lactate change amount within cells (nmol/mg cell) (cells): 9.3 nmol/mg cell
- intake amount vs controls (FIG. 2) (C57BL/6J Lep ob/ob mice; [2]): significantly decreased
- weight change vs controls (FIG. 2) (C57BL/6J Lep ob/ob mice; [2]): significantly decreased
- weight increase ratio vs controls (FIG. 2) (C57BL/6J Lep ob/ob mice; [2]): significantly decreased

SMILES: COc1cccc2c1-c1oc(C(C)C)nc1C(=O)C2=O [Example 8, 2-isopropyl-9-methoxynaphtho[2,1-d]oxazole-4,5-dione]
- NQO1 activity (5 μM, [nmol cytochrome C reduced/min/μg protein]) (NQO1 protein; [1]): 205.1 nmol cytochrome C reduced/min/μg protein
- Lactate change amount within cells (nmol/mg cell) (cells): 6.2 nmol/mg cell
- intake amount vs controls (FIG. 3) (C57BL/6J Lep ob/ob mice; [3]): significantly decreased
- weight increase ratio vs controls (FIG. 3) (C57BL/6J Lep ob/ob mice; [3]): significantly decreased

SMILES: O=C1C(=O)c2c(oc(=O)n2Cc2ccc(F)cc2)-c2ccccc21 [Example 42]
- NQO1 activity (5 μM, [nmol cytochrome C reduced/min/μg protein]) (NQO1 protein; [1]): 208.0 nmol cytochrome C reduced/min/μg protein
- Lactate change amount within cells (nmol/mg cell) (cells): 7.1 nmol/mg cell
- intake amount vs controls (FIG. 8) (C57BL/6J Lep ob/ob mice; [4]): significantly decreased in some sections
- weight change vs controls (FIG. 8) (C57BL/6J Lep ob/ob mice; [4]): significantly decreased in some sections
- weight increase ratio vs controls (FIG. 8) (C57BL/6J Lep ob/ob mice; [4]): significantly decreased in some sections

SMILES: CC(C)(C)c1nc2c(o1)C(=O)C(=O)c1cc(N)ccc1-2 [Example 30, 7-amino-2-tert-butylnaphtho[1,2-d]oxazole-4,5-dione]
- Lactate change amount within cells (nmol/mg cell) (cells): 7.3 nmol/mg cell
- intake amount vs controls (FIG. 5) (C57BL/6J Lep ob/ob mice; mouse, in vivo, po, 150 mg/kg): significantly decreased
- weight change vs controls (FIG. 5) (C57BL/6J Lep ob/ob mice; mouse, in vivo, po, 150 mg/kg): significantly decreased

SMILES: CC(C)(C)c1nc2c(o1)C(=O)C(=O)c1ccccc1-2 [Example 28, 2-tert-butylnaphtho[1,2-d]oxazole-4,5-dione]
- Lactate change amount within cells (nmol/mg cell) (cells): 7.4 nmol/mg cell
- intake amount vs controls (FIG. 3) (C57BL/6J Lep ob/ob mice; mouse, in vivo, po, 100 mg/kg): significantly decreased

SMILES: COc1ccc(Br)c2c1-c1oc(C(C)C)nc1C(=O)C2=O [Example 9, 6-bromo-2-isopropyl-9-methoxynaphtho[2,1-d]oxazole-4,5-dione]
- NQO1 activity (5 μM, [nmol cytochrome C reduced/min/μg protein]) (NQO1 protein; [1]): 73.6 nmol cytochrome C reduced/min/μg protein
- Lactate change amount within cells (nmol/mg cell) (cells): 7.3 nmol/mg cell
- weight change vs controls (FIG. 4) (C57BL/6J Lep ob/ob mice; [5]): significantly decreased
- weight increase ratio vs controls (FIG. 4) (C57BL/6J Lep ob/ob mice; [5]): significantly decreased

SMILES: CCn1c2c(oc1=O)-c1ccccc1C(=O)C2=O [Example 41]
- NQO1 activity (5 μM, [nmol cytochrome C reduced/min/μg protein]) (NQO1 protein): 237.1 nmol cytochrome C reduced/min/μg protein
- Lactate change amount within cells (nmol/mg cell) (cells): 5.2 nmol/mg cell
- intake amount vs controls (FIG. 7) (C57BL/6J Lep ob/ob mice; mouse, in vivo, po, 150 mg/kg): significantly decreased in some sections
- weight change vs controls (FIG. 7) (C57BL/6J Lep ob/ob mice; mouse, in vivo, po, 150 mg/kg): significantly decreased in some sections
- weight increase ratio vs controls (FIG. 7) (C57BL/6J Lep ob/ob mice; mouse, in vivo, po, 150 mg/kg): significantly decreased in some sections

SMILES: O=C1C(=O)c2oc(-c3ccccc3)nc2-c2ccccc21 [Example 27]
- Lactate change amount within cells (nmol/mg cell) (cells): 5.8 nmol/mg cell
- weight change vs controls (FIG. 4) (C57BL/6J Lep ob/ob mice; mouse, in vivo, po, 100 mg/kg): significantly decreased

SMILES: O=C1C(=O)c2oc(-c3ccc(F)cc3)nc2-c2cccnc21 [Example 36]
- NQO1 activity (5 μM, [nmol cytochrome C reduced/min/μg protein]) (NQO1 protein; [1]): 936.1 nmol cytochrome C reduced/min/μg protein
- Lactate change amount within cells (nmol/mg cell) (cells): 7.3 nmol/mg cell
- intake amount vs controls (FIG. 6) (C57BL/6J Lep ob/ob mice; [6]): significantly decreased
- weight change vs controls (FIG. 6) (C57BL/6J Lep ob/ob mice; [6]): significantly decreased
- weight increase ratio vs controls (FIG. 6) (C57BL/6J Lep ob/ob mice; [6]): significantly decreased

SMILES: CCc1nc2c(o1)C(=O)C(=O)c1ccccc1-2 [Example 51]
- NQO1 activity (5 μM, [nmol cytochrome C reduced/min/μg protein]) (NQO1 protein; [1]): 240.9 nmol cytochrome C reduced/min/μg protein
- Lactate change amount within cells (nmol/mg cell) (cells): 5.7 nmol/mg cell
- intake amount vs controls (FIG. 7) (C57BL/6J Lep ob/ob mice; [7]): significantly decreased in some sections
- weight change vs controls (FIG. 7) (C57BL/6J Lep ob/ob mice; [7]): significantly decreased in some sections
- weight increase ratio vs controls (FIG. 7) (C57BL/6J Lep ob/ob mice; [7]): significantly decreased in some sections
